Reference: patent US20240343722A1 (VIFOR (INTERNATIONAL) AG, priority 2021, published 2024)

Target: T1, ferroportin (Fpn) (Mus musculus, UniProt Q9JHI9)
T1 construct: endogenous in cells; host or cells: J774 mouse macrophage cell line, induced with Fe(III)NTA
T1 sequence (Q9JHI9 1-570): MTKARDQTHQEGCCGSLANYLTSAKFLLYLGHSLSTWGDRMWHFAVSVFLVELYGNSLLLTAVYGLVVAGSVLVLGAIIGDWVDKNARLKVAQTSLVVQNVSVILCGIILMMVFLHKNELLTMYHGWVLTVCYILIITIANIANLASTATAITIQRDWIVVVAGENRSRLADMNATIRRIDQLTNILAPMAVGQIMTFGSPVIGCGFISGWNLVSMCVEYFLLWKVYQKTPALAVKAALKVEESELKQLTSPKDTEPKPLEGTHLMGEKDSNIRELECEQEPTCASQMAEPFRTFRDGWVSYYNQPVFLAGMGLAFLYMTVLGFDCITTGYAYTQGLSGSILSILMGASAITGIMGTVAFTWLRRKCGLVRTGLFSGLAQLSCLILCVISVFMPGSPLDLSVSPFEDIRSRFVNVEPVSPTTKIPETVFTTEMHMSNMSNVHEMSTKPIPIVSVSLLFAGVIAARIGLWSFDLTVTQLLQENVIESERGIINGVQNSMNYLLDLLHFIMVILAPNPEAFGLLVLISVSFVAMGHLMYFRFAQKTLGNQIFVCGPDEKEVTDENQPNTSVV
Test: Hepcidin Internalization Assay (J774)
Assay type: cell-based
Conditions: Average (AVE) IC50 of multiple measurements; inhibition of TMR-hepcidin (25 nM) internalization into J774 cells
Source text: This cellular assay allows quantification of the binding of hepcidin to ferroportin (Fpn) through microscopic detection of internalization of a fluorescently labeled hepcidin into J774 cells. […] Binding of hepcidin to Fpn triggers internalization and degradation of both hepcidin and Fpn. […] Therefore, microscopic detection of cell-associated TMR fluorescence is a measure of hepcidin binding to Fpn and internalization of hepcidin and Fpn. If TMR-hepcidin is prevented from binding to Fpn, cellular TMR fluorescence remains low (Durrenberger et al, 2013). The effect of small molecular weight Fpn inhibitor compounds in this assay was evaluated in vitro as described below. […] After removal of the paraformaldehyde solution, cells were washed 3 times with PBS leaving 100 μl per well and the plates were sealed with foil plate seal. TMR (530-550 nm excitation/575-625 nm emission/400 ms exposure time) and Hoechst 33342 (360-370 nm excitation/420-460 nm emission /10 ms exposure time) fluorescence images were acquired using a […] imager (Olympus) with a 20× high NA objective. […] The acquired image data was analysed with the […] analysis software. […] IC50 values were calculated with the Sum(Mean) raw data using “log(inhibitor) vs. response” curve fitting of Prism 5 software (GraphPad Software Inc., version 5.02). For each data set the fit of the “log(inhibitor) vs. response (three parameters)” model was compared to the fit of the “log(inhibitor) vs. response - Variable slope (four parameters)” model and the IC50 data of the preferred model was used.

## COc1cccc(CCn2c(CCNCCc3nc(C(=O)NCc4ncccc4F)co3)nc3ccccc32)c1 [Example 45, N-((3-fluoropyridin-2-yl)methyl)-2-(2-((2-(1-(3-methoxyphenethyl)-1 H-benzo[d]imidazol-2-yl)ethyl)amino)ethyl)oxazole-4-carboxamide]
  IC50: 0.8 nM

## CCCCn1c(CCNCCc2nc(C(=O)NCc3ncccc3OC)co2)nc2ccccc21 [Example 46, 2-(2-((2-(1-butyl-1 H-benzo[d]imidazol-2-yl)ethyl)amino)ethyl)-N-((3-methoxypyridin-2-yl)methyl)oxazole-4-carboxamide]
  IC50: 1 nM

## CCCCn1c(CCNCCc2nc(C(=O)NCc3ncccc3C(F)(F)F)co2)nc2ccccc21 [Example 47, 2-(2-((2-(1-butyl-1 H-benzo[d]imidazol-2-yl)ethyl)amino)ethyl)-N-((3-(trifluoromethyl)pyridin-2-yl)methyl)oxazole-4-carboxamide]
  IC50: 8 nM

## COCCOCCn1c(CCNCCc2nc(C(=O)NCc3ncccc3F)co2)nc2ccccc21 [Example 48, N-((3-fluoropyridin-2-yl)methyl)-2-(2-((2-(1-(2-(2-methoxyethoxy)ethyl)-1 H-benzo[d]imidazol-2-yl)ethyl)amino)ethyl)oxazole-4-carboxamide]
  IC50: 2 nM

## CCCCn1c(C2CCN(CCc3nc(C(=O)NCc4ncccc4F)co3)CC2)nc2ccccc21 [Example 49, 2-(2-(4-(1-butyl-1 H-benzo[d]imidazol-2-yl)piperidin-1-yl)ethyl)-N-((3-fluoropyridin-2-yl)methyl)oxazole-4-carboxamide]
  IC50: 3300 nM

## O=C(NCc1ncccc1F)c1coc(CCNCCc2nc3ccccc3n2CC2CC2)n1 [Example 50, 2-(2-((2-(1-(Cyclopropylmethyl)-1 H-benzo[d]imidazol-2-yl)ethyl)amino)ethyl)-N-((3-fluoropyridin-2-yl)methyl)oxazole-4-carboxamide]
  IC50: 0.8 nM

## O=C(NCc1ncccc1F)c1coc(CCNCCc2nc3ccccc3n2CC2CCCCC2)n1 [Example 51, 2-(2-((2-(1-(cyclohexylmethyl)-1H-benzo[d]imidazol-2-yl)ethyl)amino)ethyl)-N-((3-fluoropyridin-2-yl)methyl)oxazole-4-carboxamide]
  IC50: 0.8 nM

## CCCCn1c(CC(C)(C)NCCc2nc(C(=O)NCc3ncccc3F)co2)nc2ccccc21 [Example 52, 2-(2-((1-(1-butyl-1 H-benzo[d]imidazol-2-yl)-2-methylpropan-2-yl)amino)ethyl)-N-((3-fluoropyridin-Z-yl)methyl)oxazole-4-carboxamide]
  IC50: 625 nM

## O=C(NCc1ncccc1F)c1coc(CCNCCc2nc3ccccc3n2CC(F)F)n1 [Example 53, 2-(2-((2-(1-(2,2-difluoroethyl)-1H-benzo[d]imidazol-2-yl)ethyl)amino)ethyl)-N-((3-fluoropyridin-2-yl)methyl)oxazole-4-carboxamide]
  IC50: 5 nM

## O=C(NCc1ncccc1F)c1coc(CCNCCc2nc3ccccc3n2Cc2ccccc2Cl)n1 [Example 54, 2-(2-((2-(1-(2-chlorobenzyl)-1H-benzo[d]imidazol-2-yl)ethyl)amino)ethyl)-N-((3-fluoropyridin-2-yl)methyl)oxazole-4-carboxamide]
  IC50: 0.9 nM

## O=C(NCc1ncccc1F)c1coc(CCNCCc2nc3ccccc3n2-c2ccccc2)n1 [Example 55, N-((3-fluoropyridin-2-yl)methyl)-2-(2-((2-(1-phenyl-1 H-benzo[d]imidazol-2-yl)ethyl)amino)ethyl)oxazole-4-carboxamide]
  IC50: 1.4 nM

## CN(C)CCn1c(CCNCCc2nc(C(=O)NCc3ncccc3F)co2)nc2ccccc21 [Example 56, 2-(2-((2-(1-(2-(dimethylamino)ethyl)-1 H-benzo[d]imidazol-2-yl)ethyl)amino)ethyl)-N-((3-fluoropyridin-2-yl)methyl)oxazole-4-carboxamide]
  IC50: 9 nM

## CC(C)OCCn1c(CCNCCc2nc(C(=O)NCc3ncccc3F)co2)nc2ccccc21 [Example 57, N-((3-fluoropyridin-2-yl)methyl)-2-(2-((2-(1-(2-isopropoxyethyl)-1 H-benzo[d]imidazol-2-yl)ethyl)amino)ethyl)oxazole-4-carboxamide]
  IC50: 1.4 nM

## O=C(NCc1ncccc1F)c1coc(CCNCCc2nc3ccccc3n2Cc2ccc(Cl)cc2)n1 [Example 58, 2-(2-((2-(1-(4-chlorobenzyl)-1H-benzo[d]imidazol-2-yl)ethyl)amino)ethyl)-N-((3-fluoropyridin-2-yl)methyl)oxazole-4-carboxamide]
  IC50: 0.8 nM

## CCCCn1c(C(C)(C)CNCCc2nc(C(=O)NCc3ncccc3F)co2)nc2ccccc21 [Example 60, 2-(2-((2-(1-butyl-1 H-benzo[d]imidazol-2-yl)-2-methylpropyl)amino)ethyl)-N-((3-fluoropyridin-2-yl)methyl)oxazole-4-carboxamide]
  IC50: 355 nM

## CCCCn1c(C2(CNCCc3nc(C(=O)NCc4ncccc4F)co3)CCCCC2)nc2ccccc21 [Example 61, 2-(2-(((1-(1-butyl-1H-benzo[d]imidazol-2-yl)cyclohexyl)methyl)amino)ethyl)-N-((3-fluoropyridin-2-yl)methyl)oxazole-4-carboxamide]
  IC50: 1430 nM

## O=C(NCc1ncccc1F)c1coc(CCNCCc2nc3ccccc3n2Cc2ccncn2)n1 [Example 62, N-((3-fluoropyridin-2-yl)methyl)-2-(2-((2-(1-(pyrimidin-4-ylmethyl)-1 H-benzo[d]imidazol-2-yl)ethyl)amino)ethyl)oxazole-4-carboxamide]
  IC50: 8.5 nM

## COc1cccc(-n2c(CCNCCc3nc(C(=O)NCc4ncccc4F)co3)nc3ccccc32)c1 [Example 63, N-((3-fluoropyridin-2-yl)methyl)-2-(2-((2-(1-(3-methoxyphenyl)-1H-benzo[d]imidazol-2-yl)ethyl)amino)ethyl)oxazole-4-carboxamide]
  IC50: 0.8 nM

## O=C(NCc1ncccc1F)c1coc(CCNCCc2nc3ccccc3n2-c2cccc(Cl)c2)n1 [Example 64, 2-(2-((2-(1-(3-chlorophenyl)-1 H-benzo[d]imidazol-2-yl)ethyl)amino)ethyl)-N-((3-fluoropyridin-2-yl)methyl)oxazole-4-carboxamide]
  IC50: 1.3 nM

## O=C(NCc1ncccc1F)c1coc(CCNCCc2nc3cc4c(cc3n2CC2CC2)OCCO4)n1 [Example 65]
  IC50: 1.2 nM

## COCCOCCn1c(CCNCCc2nc(C(=O)NCc3ncccc3OC)co2)nc2cc3c(cc21)OCCO3 [Example 66, 2-(2-((2-(1-(2-(2-methoxyethoxy)ethyl)-6,7-dihydro-1 H-[1,4]dioxino[2′,3′:4,5]benzo[1,2-d]imidazol-2-yl)ethyl)amino)ethyl)-N-((3-methoxypyridin-2-yl)methyl)oxazole-4-carboxamide]
  IC50: 5 nM

## COCCn1c(CCNCCc2nc(C(=O)NCc3ncccc3OC)co2)nc2cc3c(cc21)OCCO3 [Example 67, 2-(2-((2-(1-(2-methoxyethyl)-6,7-dihydro-1H-[1,4]dioxino[2′,3′:4,5]benzo[1,2-d]imidazol-2-yl)ethyl)amino)ethyl)-N-((3-methoxypyridin-2-yl)methyl)oxazole-4-carboxamide]
  IC50: 4.3 nM

## COc1cccnc1CNC(=O)c1coc(CCNCCc2nc3cc4c(cc3n2CC(F)F)OCCO4)n1 [Example 68, 2-(2-((2-(1-(2,2-difluoroethyl)-6,7-dihydro-1 H-[1,4]dioxino[2′,3′:4,5]benzo[1,2-d]imidazol-2-yl)ethyl)amino)ethyl)-N-((3-methoxypyridin-2-yl)methyl)oxazole-4-carboxamide]
  IC50: 7 nM
